Test results as given in the supplement of paper PMC10307832.

Experiments:
Test in all cases: relative viability (nuclei count vs DMSO), 5 days (fraction); higher = more cells survive
[1] = compound: CC1=C(C=CC(=C1)[N+](=O)[O-])NS(=O)(=O)C2=C(C=CC(=C2)Cl)Cl [FH535] + CC(=O)c1c(C)c2cnc(Nc3ccc(N4CCNCC4)cn3)nc2n(C2CCCC2)c1=O [Palbociclib] (partner 0.5 µM)
Outline: (§1)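 Relative viability was taken as the ratio of nuclei in treated wells to nuclei in vehicle wells. Lung cancer cell lines in 1536-well plates received compounds by pin tool one day after seeding, either one drug alone or a fixed anchor-drug dose plus five library-drug doses (not always all listed) in √10 steps. Nuclei were counted on 4× images after 5 days of treatment, and values are medians of duplicate plates.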

[2] = compound: CC1=C(C=CC(=C1)[N+](=O)[O-])NS(=O)(=O)C2=C(C=CC(=C2)Cl)Cl [FH535] + CC(C)C[C@H](NC(=O)[C@H](Cc1ccccc1)NC(=O)c1cnccn1)B(O)O [Bortezomib] (partner 0.002 µM)
Outline: as §1

[3] = compound: CC1=C(C=CC(=C1)[N+](=O)[O-])NS(=O)(=O)C2=C(C=CC(=C2)Cl)Cl [FH535] + CS(=O)(=O)CCNCc1ccc(-c2ccc3ncnc(Nc4ccc(OCc5cccc(F)c5)c(Cl)c4)c3c2)o1 [Lapatinib] (partner 2 µM)
Outline: as §1

[4] = compound: CC1=C(C=CC(=C1)[N+](=O)[O-])NS(=O)(=O)C2=C(C=CC(=C2)Cl)Cl [FH535] + CS(=O)(=O)N1CCN(Cc2cc3nc(-c4cccc5[nH]ncc45)nc(N4CCOCC4)c3s2)CC1 [Pictilisib] (partner 1 µM)
Outline: as §1

[5] = compound: CC1=C(C=CC(=C1)[N+](=O)[O-])NS(=O)(=O)C2=C(C=CC(=C2)Cl)Cl [FH535] + Nc1nc2[nH]cc(CCc3ccc(C(=O)N[C@@H](CCC(=O)O)C(=O)O)cc3)c2c(=O)[nH]1 [Pemetrexed] (partner 0.2 µM)
Outline: as §1

Row | Cell Line | relative viability ([1]; first compound 0.04 µM) | relative viability ([1]; first compound 0.1265 µM) | relative viability ([1]; first compound 0.4 µM) | relative viability ([1]; first compound 1.265 µM) | relative viability ([2]; first compound 0.04 µM) | relative viability ([2]; first compound 0.1265 µM) | relative viability ([2]; first compound 0.4 µM) | relative viability ([2]; first compound 1.265 µM) | relative viability ([3]; first compound 0.04 µM) | relative viability ([3]; first compound 0.1265 µM) | relative viability ([3]; first compound 0.4 µM) | relative viability ([3]; first compound 1.265 µM) | relative viability ([4]; first compound 0.04 µM) | relative viability ([4]; first compound 0.1265 µM) | relative viability ([4]; first compound 0.4 µM) | relative viability ([4]; first compound 1.265 µM) | relative viability ([5]; first compound 0.04 µM) | relative viability ([5]; first compound 0.1265 µM) | relative viability ([5]; first compound 0.4 µM) | relative viability ([5]; first compound 1.265 µM)
1 | 201T | 0.374 | 0.344 | 0.332 | 0.301 | 1.02 | 1.05 | 1.1 | 1.03 | 1.01 | 0.897 | 0.971 | 0.978 | 0.662 | 0.726 | 0.632 | 0.627 | 0.344 | 0.336 | 0.356 | 0.275
2 | A549 |  |  |  |  |  |  |  |  | 0.979 | 0.947 | 0.864 | 0.578 | 0.553 | 0.511 | 0.494 | 0.398 |  |  |  | 
3 | A-427 | 0.532 | 0.575 | 0.546 | 0.474 | 0.967 | 0.982 | 0.829 | 0.908 | 0.995 | 1.03 | 0.962 | 0.99 | 0.642 | 0.83 | 0.551 | 0.685 | 0.979 | 0.973 | 0.953 | 0.785
4 | ABC-1 | 0.715 | 0.641 | 0.458 | 0.583 | 0.331 | 0.26 | 0.33 | 0.34 | 1.21 | 1.08 | 1.36 | 0.983 | 0.601 | 0.878 | 0.702 | 0.735 |  |  |  | 
5 | BEN | 0.477 | 0.455 | 0.489 | 0.431 | 0.755 | 0.615 | 0.647 | 0.475 | 0.678 | 0.674 | 0.604 | 0.398 | 0.548 | 0.617 | 0.459 | 0.41 | 0.708 | 0.755 | 0.638 | 0.613
6 | CAL-12T | 0.344 | 0.442 | 0.393 | 0.25 | 0.846 | 0.936 | 0.626 | 0.268 | 0.612 | 0.633 | 0.726 | 0.476 | 0.392 | 0.362 | 0.29 | 0.334 | 1.24 | 1.38 | 1.04 | 0.877
7 | COR-L23 | 0.3 | 0.327 | 0.263 | 0.256 | 0.845 | 1.04 | 0.816 | 0.587 | 0.953 | 0.958 | 0.901 | 0.549 | 0.734 | 0.816 | 0.624 | 0.531 | 0.188 | 0.192 | 0.2 | 0.205
8 | COR-L 105 | 0.335 | 0.386 | 0.43 | 0.359 | 0.804 | 0.822 | 0.653 | 0.675 | 0.274 | 0.345 | 0.372 | 0.398 | 0.27 | 0.385 | 0.384 | 0.394 | 1.16 | 1.08 | 0.943 | 0.968
9 | ChaGo-K-1 | 0.893 | 0.946 | 0.888 | 0.531 | 0.915 | 1.24 | 0.95 | 0.589 |  |  |  |  | 0.55 | 1.07 | 0.658 | 0.436 | 0.259 | 0.237 | 0.273 | 0.255
10 | EKVX | 0.422 | 0.396 | 0.333 | 0.292 | 1.04 | 0.762 | 1 | 0.704 | 0.179 | 0.221 | 0.227 | 0.187 | 0.411 | 0.401 | 0.411 | 0.425 | 0.366 | 0.47 | 0.413 | 0.379
11 | EMC-BAC-2 | 0.546 | 0.507 | 0.526 | 0.512 | 0.961 | 1.13 | 1.06 | 1.03 | 0.788 | 0.926 | 0.894 | 0.813 | 0.506 | 0.507 | 0.544 | 0.526 | 0.408 | 0.422 | 0.419 | 0.423
12 | EPLC-272H | 0.363 | 0.336 | 0.337 | 0.299 | 0.788 | 0.967 | 0.925 | 0.848 | 0.677 | 1.1 | 0.827 | 0.831 | 0.263 | 0.349 | 0.299 | 0.249 | 0.301 | 0.366 | 0.353 | 0.308
13 | H3255 | 0.302 | 0.307 | 0.346 | 0.307 | 0.614 | 0.827 | 0.708 | 0.409 | 0.214 | 0.252 | 0.266 | 0.199 | 0.352 | 0.466 | 0.445 | 0.413 | 0.58 | 0.564 | 0.545 | 0.577
14 | HARA | 0.233 | 0.278 | 0.277 | 0.241 | 1.03 | 0.987 | 1.11 | 0.73 | 0.743 | 0.802 | 0.8 | 0.73 | 0.429 | 0.665 | 0.368 | 0.458 | 0.258 | 0.254 | 0.234 | 0.286
15 | HCC-15 | 0.651 | 0.781 | 0.639 | 0.523 | 0.975 | 0.874 | 0.896 | 0.713 | 0.825 | 0.679 | 0.733 | 0.534 | 0.672 | 0.668 | 0.674 | 0.594 | 0.256 | 0.216 | 0.229 | 0.212
16 | HCC-44 | 1.02 | 0.889 | 0.914 | 0.79 | 0.952 | 0.811 | 0.856 | 0.652 | 1.06 | 1.03 | 0.977 | 0.773 | 0.67 | 0.556 | 0.564 | 0.538 | 0.647 | 0.687 | 0.604 | 0.628
